SMILES strings stand for the structures. Peptide text beside a SMILES is read from it.

Two molecules from PMC4418665, “Cyclization of the Urokinase Receptor-Derived Ser-Arg-Ser-Arg-Tyr Peptide Generates a Potent Inhibitor of Trans-Endothelial Migration of Monocytes” (PLoS ONE, 2015) can be followed below.

For one data set, the target named is T1, FPR1 (Homo sapiens, UniProt P21462).
T1 sequence (P21462 1-350): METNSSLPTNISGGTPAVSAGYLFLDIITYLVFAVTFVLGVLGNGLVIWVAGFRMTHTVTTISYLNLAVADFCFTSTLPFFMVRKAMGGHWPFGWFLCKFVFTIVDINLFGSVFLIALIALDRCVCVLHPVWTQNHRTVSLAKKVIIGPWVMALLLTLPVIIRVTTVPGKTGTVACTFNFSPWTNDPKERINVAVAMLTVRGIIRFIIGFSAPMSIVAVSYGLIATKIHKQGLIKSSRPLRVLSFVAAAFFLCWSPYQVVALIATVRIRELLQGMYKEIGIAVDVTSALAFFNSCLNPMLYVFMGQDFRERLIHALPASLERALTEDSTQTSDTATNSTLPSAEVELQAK
As to the kind of experiment: Ligand binding assay, competition with FITC-fMLF at 4°C, THP-1 cells. Also on record: host or cells: THP-1 human monocytic leukemia cells. The note with it: excess (100 nM) unlabeled peptide 60 min at 4°C, then 10 nM FITC-fMLF 60 min at 4°C; triplicates. On the procedure:
Once documented that both SRSRY and [SRSRY] peptides compete with fMLF for binding to FPR1, we investigated the effect of [SRSRY] on the motility of monocytes. Preliminarily, we assessed whether [SRSRY] is a ligand of FPR1 on monocyte cell surface. […] (Fig 3A). When binding experiments were performed at 37°C, FPR1 appeared mainly localized within the cytoplasm, adjacent but outside the nucleus of THP-1 cells.
Fig 3 The peptide [SRSRY] binds to FPR1 on THP-1 cell surface. A. THP-1 cells (1.5 x10^6 cells/sample) were pre-incubated with diluents (None), 100 nM fMLF, 100 nM SRSRY or 100 nM [SRSRY] peptides for 60 minutes at 4°C, then exposed to 10 nM N-formyl-Nle-Leu-Phe-Nle-Tyr-Lys-fluorescein (FITC-fMLF) for additional 60 minutes at 4°C. Fluorimetric measurement of cell-associated fluorescence was assed using 485 nm excitation and 535 nm emission filters. Data are expressed as a percentage of the fluorescence associated to THP-1 cells exposed to FITC-fMLF alone (None = 100%) and represent a mean ± SD from triplicates. *Statistical significance (t-test) against None with p<0.001. B. THP-1 cells incubated with diluents (None), 100 nM fMLF, 100 nM SRSRY or 100 nM [SRSRY] peptides for 30 minutes at 37°C and exposed to 10 nM FITC-fMLF for additional 30 minutes at 37°C. Scale bar: 5 μm. Original magnifications: 630x. […]

Data set [1] in a line: Serum stability in human serum (RP-HPLC). Format: in vitro ADME. Conditions: 37°C, peptide 10^-2 mol/L, acetonitrile precipitation; for remaining at 1 h: RP-HPLC C18, % of concentration at time 0, read-out: residual concentration after one hour of exposure to serum; for remaining at 24 h: RP-HPLC C18, % of concentration at time 0, read-out: residual concentration after 24 hours in serum. On the procedure: Cyclization of peptides listed in Table 1was obtained as described in the Material and Methods, using the strategy depicted in the S1 Fig. The stability of the linear peptide Ser-Arg-Ser-Arg-Tyr (SRSRY) and cyclized peptide Ser-Arg-Ser-Arg-Tyr [SRSRY] in human serum was investigated through incubation of the peptide at a 10^–2 mol/L in human serum and samples were taken at different time points and analysed by Reversed-phase chromatography (RP-HPLC). Serum-dependent degradation of peptides was monitored for up to 24 hours.
Fig 1 Stability of SRSRY and [SRSRY] peptides in human serum. The stability of [SRSRY] and SRSRY was performed by the injection of the peptide at a 10^–2 mol/L in human serum at 37°C. Intervals of analysis by RP-HPLC on the compound incubated in serum were carried out growing with time from 1 to 24 hours. Values are expressed as a percentage of peptide concentration assessed at time 0. [SRSRY]
The stability of SRSRY and [SRSRY] was investigated in human serum. The peptides were incubated at 37°C in human serum at a concentration of 10^-2mol/L. Aliquots ([…]) of serum were removed at time points varying from 0, 1, 2, 4, 6, and 24 hours and acetonitrile ([…]) was added to each aliquot before centrifuging (13000 rpm, 15 min). Aliquots ([…]) of the supernatant were then analyzed by RP-HPLC after passing through Phenomenex Luna 100A C18 5μ, linear gradient from 0–90% acetonitrile in water over 25 minutes.

In another data set the test system is human primary monocytes. Briefly: Primary monocyte migration in Boyden chambers. The note with it: 10 nM peptide, 90 minutes. Format: cell-based.

Take `N=C(N)NCCC[C@H](NC(=O)[C@H](CO)NC(=O)[C@H](CCCNC(=N)N)NC(=O)[C@@H](N)CO)C(=O)N[C@@H](Cc1ccc(O)cc1)C(N)=O` [SRSRY, H-Ser-Arg-Ser-Arg-Tyr-NH2] (H-SRSRY-NH2): the “binding of FITC-fMLF to THP-1 cells” value at FPR1 was “dramatically reduced”. Besides, in data set [1], the remaining at 1 h is less than 75% and the remaining at 24 h was less than 50%.
With `N=C(N)NCCC[C@@H]1NC(=O)[C@H](CO)NC(=O)[C@H](Cc2ccc(O)cc2)NC(=O)[C@H](CCCNC(=N)N)NC(=O)[C@H](CO)NC1=O` [[SRSRY], [Ser-Arg-Ser-Arg-Tyr]] (cyclo(RSRYS)), the “binding of FITC-fMLF to THP-1 cells” value on FPR1 is reported as “dramatically reduced”. In data set [1], the remaining at 1 h is less than 85% and the remaining at 24 h was more than 80%. Moreover, the “reduction of SRSRY-directed primary monocyte migration” value in the data set with human primary monocytes (10 nM SRSRY) is listed as 49%. In addition, the “reduction of fMLF-directed primary monocyte migration” value with human primary monocytes (10 nM fMLF) is listed as 50%.
